In BindingDB's records for doi:10.1016/j.bmcl.2016.06.076 (Leiden University, 2016) one finds IC50 data, which are given here for 1 compound.

The target in the assay is T1, Diacylglycerol lipase-alpha (Homo sapiens, UniProt Q9Y4D2).
T1 sequence (Q9Y4D2 whole entry): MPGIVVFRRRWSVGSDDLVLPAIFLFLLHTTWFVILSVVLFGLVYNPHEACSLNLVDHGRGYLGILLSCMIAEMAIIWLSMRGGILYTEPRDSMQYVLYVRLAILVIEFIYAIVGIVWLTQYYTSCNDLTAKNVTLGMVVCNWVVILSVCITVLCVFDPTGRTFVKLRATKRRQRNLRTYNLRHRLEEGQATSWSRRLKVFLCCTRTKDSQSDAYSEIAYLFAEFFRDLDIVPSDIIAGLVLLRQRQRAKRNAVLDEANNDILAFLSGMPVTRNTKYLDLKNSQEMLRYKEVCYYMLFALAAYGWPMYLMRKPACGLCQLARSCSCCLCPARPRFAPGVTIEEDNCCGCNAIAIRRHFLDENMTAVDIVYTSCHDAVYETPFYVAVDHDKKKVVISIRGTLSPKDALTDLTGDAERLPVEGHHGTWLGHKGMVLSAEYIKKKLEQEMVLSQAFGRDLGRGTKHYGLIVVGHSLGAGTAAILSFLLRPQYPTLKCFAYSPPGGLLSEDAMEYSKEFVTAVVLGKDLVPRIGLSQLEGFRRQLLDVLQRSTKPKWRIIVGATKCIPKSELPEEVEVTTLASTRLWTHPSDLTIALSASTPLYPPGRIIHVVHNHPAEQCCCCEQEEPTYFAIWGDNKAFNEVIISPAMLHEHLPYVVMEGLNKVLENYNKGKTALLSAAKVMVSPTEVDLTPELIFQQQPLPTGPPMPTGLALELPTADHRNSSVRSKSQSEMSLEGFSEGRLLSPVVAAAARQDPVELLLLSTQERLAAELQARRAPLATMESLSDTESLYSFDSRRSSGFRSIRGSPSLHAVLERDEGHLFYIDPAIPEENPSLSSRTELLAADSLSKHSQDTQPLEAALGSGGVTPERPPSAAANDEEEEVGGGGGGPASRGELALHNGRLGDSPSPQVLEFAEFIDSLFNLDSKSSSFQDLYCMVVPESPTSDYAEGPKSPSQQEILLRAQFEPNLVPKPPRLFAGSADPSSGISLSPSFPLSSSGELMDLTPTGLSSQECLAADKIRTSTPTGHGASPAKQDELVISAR
Kind of assay: Inhibition of human DAGLalpha expressed in HEK293T cell membrane fractions using PNP butyrate as substrate preincubated for 20 mins followed by substrate addition by colorimetric surrogate substrate assay.

A word on the IC50: it is the point on the concentration scale where inhibition reaches its midpoint. Low values mean greater potency, high ones weaker potency.

Take `O=C(CCCCCc1ccccc1)c1nc2ncccc2o1` [1-(oxazolo[4,5-b]pyridin-2-yl)-6-phenylhexan-1-one]: the IC50 came to 40 nM.
